The text below walks through data of ChEMBL document CHEMBL5465560, “Selectivity Literature for EUbOPEN Chemogenomic Library” (2024).

In experiment [1] the target is T1, Receptor-interacting serine/threonine-protein kinase 1 (Homo sapiens) (UniProt Q13546).
T1 sequence (whole entry): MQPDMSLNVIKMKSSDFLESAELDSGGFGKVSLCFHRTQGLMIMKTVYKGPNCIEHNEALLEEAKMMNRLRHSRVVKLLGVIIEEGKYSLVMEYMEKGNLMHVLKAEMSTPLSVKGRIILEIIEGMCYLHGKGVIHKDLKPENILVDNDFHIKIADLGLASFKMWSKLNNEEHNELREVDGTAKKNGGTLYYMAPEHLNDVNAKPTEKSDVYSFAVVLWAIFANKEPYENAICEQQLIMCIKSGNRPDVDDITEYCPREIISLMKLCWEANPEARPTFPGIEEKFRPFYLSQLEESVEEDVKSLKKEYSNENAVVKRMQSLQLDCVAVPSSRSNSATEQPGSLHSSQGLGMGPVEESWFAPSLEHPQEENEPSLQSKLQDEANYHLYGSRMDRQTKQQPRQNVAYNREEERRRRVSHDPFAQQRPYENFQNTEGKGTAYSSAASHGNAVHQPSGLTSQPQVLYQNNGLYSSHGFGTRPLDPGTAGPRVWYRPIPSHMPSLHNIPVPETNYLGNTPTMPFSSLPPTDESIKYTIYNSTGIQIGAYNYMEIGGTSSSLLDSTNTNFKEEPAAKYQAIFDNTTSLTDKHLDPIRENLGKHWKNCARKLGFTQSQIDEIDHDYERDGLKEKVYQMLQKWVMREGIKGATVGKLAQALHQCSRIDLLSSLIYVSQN
The following applies: at 10 µM.

For experiment [2], the target named is T2, Megakaryocyte-associated tyrosine-protein kinase (Homo sapiens) (UniProt P42679).
T2 sequence (whole entry): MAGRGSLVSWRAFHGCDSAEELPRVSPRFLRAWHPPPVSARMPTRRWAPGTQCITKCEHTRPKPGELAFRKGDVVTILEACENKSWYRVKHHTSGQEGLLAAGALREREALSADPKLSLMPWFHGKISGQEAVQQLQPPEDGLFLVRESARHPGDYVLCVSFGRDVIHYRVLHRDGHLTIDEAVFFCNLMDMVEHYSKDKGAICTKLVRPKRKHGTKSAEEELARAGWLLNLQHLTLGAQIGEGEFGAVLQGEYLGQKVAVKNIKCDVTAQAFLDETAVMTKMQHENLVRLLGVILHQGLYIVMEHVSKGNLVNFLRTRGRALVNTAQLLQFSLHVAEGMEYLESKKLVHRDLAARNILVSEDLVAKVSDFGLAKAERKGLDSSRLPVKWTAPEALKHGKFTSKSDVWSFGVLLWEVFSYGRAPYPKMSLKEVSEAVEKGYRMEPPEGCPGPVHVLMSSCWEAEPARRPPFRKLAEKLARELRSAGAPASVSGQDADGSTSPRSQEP
The following applies: at 10 µM.

Experiment [3] addresses Ribosomal protein S6 kinase beta-1 (Homo sapiens, UniProt P23443). The experiment can be described thus: Selectivity interaction (Ambit KINOMEscan and KiNATiv profiling in Jurkat cells) EUB0000090b RPS6KB1. The class given is cell-based. As to conditions: at 1 µM.
Experiment [4] addresses Leukocyte tyrosine kinase receptor (Homo sapiens, UniProt P29376). The experiment can be described thus: Selectivity interaction (KinomeScan (DiscoverX)) EUB0001079a LTK. The following applies: at 1 µM.
Experiment [5] has as its target Casein kinase I isoform gamma-1 (Homo sapiens) (UniProt Q9HCP0). The experiment is described as follows: Selectivity interaction (KinomeScan (DiscoverX)) EUB0001049a CSNK1G1. As to conditions: at 1 µM.
The target of experiment [6] is Cyclin-dependent kinase 15 (Homo sapiens) (UniProt Q96Q40). The experiment can be described thus: Selectivity interaction (KinomeScan (DiscoverX)) EUB0001049a CDK15. The following applies: at 1 µM.
Experiment [7] concerns the target T3, Mitogen-activated protein kinase kinase kinase 7 (Homo sapiens) (UniProt O43318).
T3 sequence (whole entry): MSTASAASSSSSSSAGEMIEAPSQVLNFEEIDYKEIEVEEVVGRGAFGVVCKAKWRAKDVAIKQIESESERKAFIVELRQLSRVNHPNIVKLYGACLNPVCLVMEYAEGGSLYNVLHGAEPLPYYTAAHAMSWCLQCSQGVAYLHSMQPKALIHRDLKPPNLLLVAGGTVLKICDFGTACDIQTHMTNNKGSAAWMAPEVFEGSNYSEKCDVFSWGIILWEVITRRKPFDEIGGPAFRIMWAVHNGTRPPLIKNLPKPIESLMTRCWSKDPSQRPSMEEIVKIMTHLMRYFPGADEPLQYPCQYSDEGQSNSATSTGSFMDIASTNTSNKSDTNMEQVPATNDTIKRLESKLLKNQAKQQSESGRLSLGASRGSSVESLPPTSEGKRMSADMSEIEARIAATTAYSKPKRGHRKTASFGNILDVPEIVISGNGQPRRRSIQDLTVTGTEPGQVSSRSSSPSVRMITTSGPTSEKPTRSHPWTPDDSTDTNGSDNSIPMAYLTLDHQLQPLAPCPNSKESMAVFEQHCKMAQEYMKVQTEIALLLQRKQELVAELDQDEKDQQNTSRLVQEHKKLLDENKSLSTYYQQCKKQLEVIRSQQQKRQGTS
The experiment can be described thus: Selectivity interaction (LanthaScreen Eu Kinase Binding Assay) EUB0001632a MAP3K7. The following applies: at 10 µM. (In general: TR-FRET usually uses a lanthanide donor and a delayed reading to cut background.)

Experiment [8] addresses Leucine-rich repeat serine/threonine-protein kinase 2 (Homo sapiens, UniProt Q5S007). The experiment can be described thus: Selectivity interaction (Enzymatic assay) EUB0001632a LRRK2.
For experiment [9], the target named is Cyclin-dependent kinase 2 (Homo sapiens, UniProt P24941). The experiment is described as follows: Selectivity interaction (ActivX KiNativ screen (kinase selectivity in THP-1 cell lysates)) EUB0000639a CDK2. Type of experiment: subcellular. As to conditions: lysate, at 1 µM.
The target of experiment [10] is T4, Aurora kinase C (Homo sapiens) (UniProt Q9UQB9).
T4 sequence (whole entry): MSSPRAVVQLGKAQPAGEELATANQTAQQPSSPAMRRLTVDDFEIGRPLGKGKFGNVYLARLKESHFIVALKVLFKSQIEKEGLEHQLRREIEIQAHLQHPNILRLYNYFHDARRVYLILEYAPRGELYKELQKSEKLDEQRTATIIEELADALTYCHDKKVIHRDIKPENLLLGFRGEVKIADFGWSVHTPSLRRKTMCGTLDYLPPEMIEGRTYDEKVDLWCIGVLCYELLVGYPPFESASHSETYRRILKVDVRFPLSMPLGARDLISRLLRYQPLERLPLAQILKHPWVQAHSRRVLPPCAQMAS
The experiment is described as follows: Selectivity interaction (ActivX KiNativ screen (kinase selectivity in THP-1 cell lysates)) EUB0000639a AURKC. The class given is subcellular. The following applies: lysate.

For experiment [11], the target named is Tyrosine-protein kinase Fgr (Homo sapiens) (UniProt P09769). The experiment can be described thus: Selectivity interaction (KinomeScan (DiscoverX)) EUB0000595a FGR. The following applies: at 10 µM.
For experiment [12], the target named is Ephrin type-A receptor 5 (Homo sapiens) (UniProt P54756). The experiment is described as follows: Selectivity interaction (KinomeScan (DiscoverX)) EUB0001619a EPHA5. The following applies: at 1 µM.
Experiment [13] concerns the target LIM domain kinase 1 (Homo sapiens) (UniProt P53667). The experiment is described as follows: Selectivity interaction (KinomeScan (DiscoverX)) EUB0000618a LIMK1. The following applies: at 10 µM.

Chain of Leucine-rich repeat serine/threonine-protein kinase 2 (Q5S007 whole entry): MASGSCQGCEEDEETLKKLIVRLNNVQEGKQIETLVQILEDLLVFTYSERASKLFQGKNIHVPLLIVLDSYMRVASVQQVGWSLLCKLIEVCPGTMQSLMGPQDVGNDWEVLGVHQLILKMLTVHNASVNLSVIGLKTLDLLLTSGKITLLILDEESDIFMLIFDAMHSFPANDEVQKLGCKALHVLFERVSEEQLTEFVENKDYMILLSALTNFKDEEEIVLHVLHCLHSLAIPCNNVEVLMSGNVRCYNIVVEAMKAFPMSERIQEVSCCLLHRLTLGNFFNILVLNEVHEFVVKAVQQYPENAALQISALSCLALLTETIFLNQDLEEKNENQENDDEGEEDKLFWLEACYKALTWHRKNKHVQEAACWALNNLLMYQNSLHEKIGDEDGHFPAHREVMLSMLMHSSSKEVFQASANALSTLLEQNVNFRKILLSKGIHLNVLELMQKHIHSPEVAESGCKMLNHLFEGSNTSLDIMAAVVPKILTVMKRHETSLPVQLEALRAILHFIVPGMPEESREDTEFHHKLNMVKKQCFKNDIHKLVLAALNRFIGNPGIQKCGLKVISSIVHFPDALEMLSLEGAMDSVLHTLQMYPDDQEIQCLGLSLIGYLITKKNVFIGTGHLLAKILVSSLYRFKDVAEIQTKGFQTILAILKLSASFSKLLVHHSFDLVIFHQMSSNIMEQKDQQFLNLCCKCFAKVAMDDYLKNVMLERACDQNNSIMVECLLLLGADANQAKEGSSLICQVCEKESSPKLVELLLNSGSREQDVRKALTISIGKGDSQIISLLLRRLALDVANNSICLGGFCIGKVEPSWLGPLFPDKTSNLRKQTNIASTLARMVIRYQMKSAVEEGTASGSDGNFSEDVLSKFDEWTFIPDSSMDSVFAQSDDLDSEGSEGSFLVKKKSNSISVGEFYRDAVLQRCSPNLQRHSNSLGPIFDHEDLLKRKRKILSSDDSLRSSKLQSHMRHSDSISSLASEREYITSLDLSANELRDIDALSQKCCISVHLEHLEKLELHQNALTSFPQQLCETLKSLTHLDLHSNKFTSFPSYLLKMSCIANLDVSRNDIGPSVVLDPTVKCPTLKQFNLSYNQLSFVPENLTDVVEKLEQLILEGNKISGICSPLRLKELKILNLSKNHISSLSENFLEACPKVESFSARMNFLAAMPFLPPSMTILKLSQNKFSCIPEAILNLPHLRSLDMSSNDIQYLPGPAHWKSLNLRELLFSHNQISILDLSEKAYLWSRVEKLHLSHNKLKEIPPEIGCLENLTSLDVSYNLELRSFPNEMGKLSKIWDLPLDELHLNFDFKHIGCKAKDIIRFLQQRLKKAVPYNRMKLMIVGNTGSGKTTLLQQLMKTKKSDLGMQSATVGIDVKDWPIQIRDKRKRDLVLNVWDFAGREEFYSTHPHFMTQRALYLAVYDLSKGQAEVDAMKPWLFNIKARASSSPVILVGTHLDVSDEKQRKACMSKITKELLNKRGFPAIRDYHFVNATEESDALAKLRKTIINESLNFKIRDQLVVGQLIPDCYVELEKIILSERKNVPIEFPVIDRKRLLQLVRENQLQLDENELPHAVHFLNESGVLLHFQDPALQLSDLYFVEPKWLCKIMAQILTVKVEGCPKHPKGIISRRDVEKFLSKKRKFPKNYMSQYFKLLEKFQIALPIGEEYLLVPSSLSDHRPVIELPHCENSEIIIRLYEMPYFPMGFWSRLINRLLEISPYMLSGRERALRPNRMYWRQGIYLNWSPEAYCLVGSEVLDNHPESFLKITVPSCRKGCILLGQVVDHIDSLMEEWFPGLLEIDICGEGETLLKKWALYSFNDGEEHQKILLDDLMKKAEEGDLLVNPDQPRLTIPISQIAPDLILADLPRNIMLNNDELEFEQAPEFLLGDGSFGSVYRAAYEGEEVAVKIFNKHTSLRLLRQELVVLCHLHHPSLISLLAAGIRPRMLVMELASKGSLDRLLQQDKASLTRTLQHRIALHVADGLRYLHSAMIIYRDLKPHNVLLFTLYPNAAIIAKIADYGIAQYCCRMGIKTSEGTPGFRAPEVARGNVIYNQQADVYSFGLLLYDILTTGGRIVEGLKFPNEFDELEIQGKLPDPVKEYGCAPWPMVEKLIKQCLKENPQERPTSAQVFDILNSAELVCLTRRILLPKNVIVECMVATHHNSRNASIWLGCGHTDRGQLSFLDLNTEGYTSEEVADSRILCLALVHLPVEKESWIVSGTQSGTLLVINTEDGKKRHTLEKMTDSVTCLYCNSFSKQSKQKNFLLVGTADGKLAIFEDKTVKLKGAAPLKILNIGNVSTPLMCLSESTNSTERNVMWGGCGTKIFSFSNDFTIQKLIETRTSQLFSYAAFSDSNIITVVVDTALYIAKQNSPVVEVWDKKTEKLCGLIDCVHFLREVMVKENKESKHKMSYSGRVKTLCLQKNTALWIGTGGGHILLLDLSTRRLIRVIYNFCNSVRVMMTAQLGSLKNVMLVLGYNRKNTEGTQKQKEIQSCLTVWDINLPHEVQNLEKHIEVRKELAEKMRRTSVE
Chain of Casein kinase I isoform gamma-1 (Homo sapiens) (Q9HCP0 whole entry, looked up, canonical isoform): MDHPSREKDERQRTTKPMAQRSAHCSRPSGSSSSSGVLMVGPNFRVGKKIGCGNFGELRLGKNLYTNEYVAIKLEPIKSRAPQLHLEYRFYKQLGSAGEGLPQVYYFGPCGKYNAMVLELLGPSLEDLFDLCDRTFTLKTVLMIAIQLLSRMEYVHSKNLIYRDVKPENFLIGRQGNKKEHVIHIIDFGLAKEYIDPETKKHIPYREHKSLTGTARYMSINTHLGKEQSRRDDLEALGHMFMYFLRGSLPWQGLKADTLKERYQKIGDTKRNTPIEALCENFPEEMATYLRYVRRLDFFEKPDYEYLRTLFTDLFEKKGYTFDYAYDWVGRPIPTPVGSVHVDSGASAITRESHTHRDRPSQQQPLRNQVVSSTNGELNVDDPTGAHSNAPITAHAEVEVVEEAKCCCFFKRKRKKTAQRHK
Chain of Ribosomal protein S6 kinase beta-1 (P23443 whole entry, looked up): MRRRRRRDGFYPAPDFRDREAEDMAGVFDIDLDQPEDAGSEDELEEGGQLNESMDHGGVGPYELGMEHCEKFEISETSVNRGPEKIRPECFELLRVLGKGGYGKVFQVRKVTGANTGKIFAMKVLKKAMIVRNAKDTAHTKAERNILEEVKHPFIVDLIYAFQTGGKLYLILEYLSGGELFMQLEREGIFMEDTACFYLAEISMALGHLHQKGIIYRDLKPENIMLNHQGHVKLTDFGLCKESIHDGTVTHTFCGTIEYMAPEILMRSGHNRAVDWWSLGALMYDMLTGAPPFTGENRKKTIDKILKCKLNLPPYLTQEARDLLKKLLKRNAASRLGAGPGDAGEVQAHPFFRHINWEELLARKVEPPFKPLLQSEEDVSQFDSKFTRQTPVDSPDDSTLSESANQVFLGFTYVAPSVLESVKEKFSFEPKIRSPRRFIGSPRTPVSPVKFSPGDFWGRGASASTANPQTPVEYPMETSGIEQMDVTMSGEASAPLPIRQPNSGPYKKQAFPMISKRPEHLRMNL
Chain of Cyclin-dependent kinase 15 (Homo sapiens) (Q96Q40 whole entry): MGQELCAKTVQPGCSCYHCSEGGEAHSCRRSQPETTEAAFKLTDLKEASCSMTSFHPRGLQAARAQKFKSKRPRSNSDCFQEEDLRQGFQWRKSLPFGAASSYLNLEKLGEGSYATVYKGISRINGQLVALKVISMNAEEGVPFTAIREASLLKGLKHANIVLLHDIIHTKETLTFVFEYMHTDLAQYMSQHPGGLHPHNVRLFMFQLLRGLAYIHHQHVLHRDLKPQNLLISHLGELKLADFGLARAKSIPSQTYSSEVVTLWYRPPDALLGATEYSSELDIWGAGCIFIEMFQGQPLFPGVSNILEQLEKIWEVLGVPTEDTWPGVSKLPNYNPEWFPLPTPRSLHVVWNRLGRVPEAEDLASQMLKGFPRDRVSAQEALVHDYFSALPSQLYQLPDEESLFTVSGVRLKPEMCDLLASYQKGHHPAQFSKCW
Chain of LIM domain kinase 1 (Homo sapiens) (P53667 whole entry, looked up, the tested form may be a part): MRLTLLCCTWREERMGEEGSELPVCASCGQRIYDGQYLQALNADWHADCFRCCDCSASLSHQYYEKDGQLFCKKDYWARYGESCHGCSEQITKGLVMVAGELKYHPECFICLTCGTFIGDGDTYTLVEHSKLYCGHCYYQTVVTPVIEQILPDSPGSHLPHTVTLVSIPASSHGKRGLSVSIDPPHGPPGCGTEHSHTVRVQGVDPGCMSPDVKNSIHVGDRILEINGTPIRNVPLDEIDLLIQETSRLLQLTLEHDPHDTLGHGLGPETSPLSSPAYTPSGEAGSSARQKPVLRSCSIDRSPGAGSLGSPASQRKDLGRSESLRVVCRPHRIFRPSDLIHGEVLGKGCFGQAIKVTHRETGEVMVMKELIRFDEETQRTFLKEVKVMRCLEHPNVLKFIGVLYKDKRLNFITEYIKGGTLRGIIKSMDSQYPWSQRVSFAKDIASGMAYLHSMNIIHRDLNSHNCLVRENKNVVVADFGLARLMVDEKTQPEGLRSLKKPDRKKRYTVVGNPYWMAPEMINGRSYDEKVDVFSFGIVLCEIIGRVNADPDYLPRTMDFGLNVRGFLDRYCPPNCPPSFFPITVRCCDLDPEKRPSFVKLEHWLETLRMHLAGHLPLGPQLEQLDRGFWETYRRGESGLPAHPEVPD
Chain of Tyrosine-protein kinase Fgr (Homo sapiens) (P09769 2-529 limits assumed): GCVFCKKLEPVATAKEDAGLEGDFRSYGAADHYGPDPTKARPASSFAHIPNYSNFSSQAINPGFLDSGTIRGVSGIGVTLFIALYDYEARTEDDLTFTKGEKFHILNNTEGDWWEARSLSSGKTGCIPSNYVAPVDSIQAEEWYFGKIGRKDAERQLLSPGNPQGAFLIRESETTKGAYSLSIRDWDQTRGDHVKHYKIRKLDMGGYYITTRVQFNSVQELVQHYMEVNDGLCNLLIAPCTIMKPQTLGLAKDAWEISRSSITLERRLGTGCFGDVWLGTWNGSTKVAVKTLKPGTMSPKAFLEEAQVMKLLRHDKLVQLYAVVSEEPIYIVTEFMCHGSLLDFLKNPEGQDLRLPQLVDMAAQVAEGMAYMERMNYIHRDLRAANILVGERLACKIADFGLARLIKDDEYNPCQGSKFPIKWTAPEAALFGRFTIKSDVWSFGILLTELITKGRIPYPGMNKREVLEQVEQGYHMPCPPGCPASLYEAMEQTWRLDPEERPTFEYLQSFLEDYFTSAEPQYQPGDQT

`Cc1cc([C@@H](C)Nc2ccccc2C(=O)O)c2nc(N3CCOCC3)cc(=O)n2c1` [AZD-6482]: the % of control in experiment [1] was found to be 100%; in experiment [2], 96%.

On to `CN(C)C/C=C/C(=O)Nc1ccc(C(=O)N2CCCC(Nc3ncc(Cl)c(-c4c[nH]c5ccccc45)n3)C2)cc1` (configuration not stated), for which the % of control in experiment [3] was determined as 83%.

On to `Nc1cnc(N2CCc3cc(S(=O)(=O)Nc4c(F)cc(Cl)cc4F)cc(N4CCCC4=O)c32)nc1` [TP-020n], for which the % of control in experiment [4] is 100%.

Turning to `COc1cc(Nc2nc(C)cc(-c3cnn4nc(OC)ccc34)n2)cc(C(F)(F)F)c1`, the % of control worked out at 100% in [5] and 90% in [6].

In general, IC50 refers to the midpoint of a concentration-inhibition curve. A high value points to weaker potency in that assay. Take `Cn1cc(-n2cnc3c(NCc4nc5cc(Cl)c(Cl)cc5[nH]4)nc(N4CCOCC4)nc32)cn1`: the % of inhibition in experiment [7] was -112%. Also, the IC50 in experiment [8] is > 10 µM.

On to `CC[C@@H]1[C@H](F)C(=O)N[C@@H]1COc1nccc2cc(C(N)=O)c(OC)cc12` [ZIMLOVISERTIB], for which the % of inhibition in experiment [9] was -10.5%; in [10] (at 0.01 µM) it was 4.9%; in experiment [10] (at 0.04 µM), -1.3%; in experiment [10] (at 0.2 µM), -1%; in experiment [10] (at 1 µM), 20%; in [10] (at 5 µM), 64.4%.

In experiment [11], `COCC(=O)NC/C=C/c1ccc2ncnc(Nc3ccc(Oc4ccc(C)nc4)c(C)c3)c2c1` [CP-724714] had a % of control of 89%.

`N#Cc1cccc(-c2c[nH]c3ncnc(N4CCOCC4)c23)c1` came in with a % of control in experiment [12] of 99%.

As to `O[C@H]1CC[C@H](Nc2ncc3nc(Nc4c(F)cc(F)cc4F)n([C@H]4CCOC4)c3n2)CC1`, the % of control in experiment [13] was found to be 35%.
